Experimental data: patent US9474759B2 (priority 2011, dated 2016)

Legend:
[1] = system: Norwalk virus (HG23 cells); experiment: microbe, parasite or virus in culture; format: cell-based; conditions: HG23, read-out: Inhibition [ED50 (μM)] against various viruses: Calicivirus, HG23 cells
[2] = target: HAV 3Cpro (full-length, 6 His, recombinant) (Human hepatitis A virus genotype IB, UniProt P08617); experiment: biochemical; parameters: species or system human hepatitis A virus (strain HM175)
MNV-1 [3] = experiment: Cell-based screening, MNV-1 in RAW267.4 cells (Example 2); parameters: species or system murine norovirus; conditions: Norwalk virus, RAW267.4, read-out: Inhibition [ED50 (μM)] against various viruses: Calicivirus, MNV-1
Procedure: (§1) 3. Cell-based screening of inhibitor. The effects of each inhibitor on the viral replication were examined. The list of viruses and corresponding cell lines are listed above in Table 2. Briefly, confluent cells were inoculated with virus at a MOI of 5 or 0.05 for 1 hr, and medium was replaced with medium containing mock-medium or each compound (up to 100 μM). The virus infected cells were further incubated for up to 96 hrs, and the replication of virus was measured by TCID50 assay with the 10-fold dilution of each sample used for virus titration (Reed and Muench, 1938). In some viruses, the virus protein and genome expression levels were detected by Western blot analysis and real-time qRT-PCR, respectively, as described below. The IC50s of the compounds were calculated.

[4] = target: MD145 3CLpro (codon-optimized, full-length, N-terminal 6 His, recombinant) (Lordsdale virus, UniProt P54634); experiment: biochemical; parameters: species or system norovirus strain MD145 (human norovirus GII)
229E = experiment: Cell-based screening, 229E in MRC-5 cells (Example 2); conditions: Human coronavirus 229E, MRC5, read-out: Inhibition [ED50 (μM)] against various viruses: Coronavirus, 229E
Procedure: as §1

EV71 = experiment: Cell-based screening, EV71 in Vero cells (Example 2); parameters: species or system enterovirus 71; conditions: Enterovirus A, EV71, Vero, read-out: Inhibition [ED50 (μM)] against various viruses: Picornavirus, EV71
Procedure: as §1

[5] = target: Norwalk virus 3CL protease (Norovirus, UniProt Q83883); experiment: Recombinant NV protease fluorogenic substrate inhibition assay (Example 1); format: biochemical; conditions: 30 min pre-incubation, 30° C., pH 8.0
Procedure: After a 30 minute incubation period, 5 μL of 12 μM Edans-[…]-Dabcyl (SEQ ID NO:1) substrate in DMSO was then added and the increase in fluorescence was monitored for 30 minutes at an excitation and emission wavelength of 360 and 460 nm, respectively. Using a HORIBA FluoroMax 4 spectrofluorometer. Hydrolysis curves were linear. The final enzyme and substrate concentrations were 2.5 μM and 300 nM, respectively. […] Furthermore, the nature of the cap was also important (compare, for example, inhibitors A and D).

FCV [6] = experiment: Cell-based screening, FCV in CRFK cells (Example 2); conditions: Feline calicivirus, CRFK, read-out: Inhibition [ED50 (μM)] against various viruses: Calicivirus, FCV
Procedure: as §1

Teschovirus = experiment: organism not typed; format: cell-based, porcine teschovirus; conditions: read-out: Inhibition [ED50 (μM)] against various viruses: Picornavirus, Teschovirus
FCV [7] = experiment: Cell culture system, FCV replication in CRFK cells (Example 3); format: cell-based, feline calicivirus; conditions: CRFK cells
FIPV = experiment: Cell-based screening, FIPV in CRFK cells (Example 2); parameters: species or system feline infectious peritonitis virus; conditions: Alphacoronavirus 1, CRFK, read-out: Inhibition [ED50 (μM)] against various viruses: Coronavirus, FIPV
Procedure: as §1

[8] = system: 3CLpro of NV, MD145, MNV-1; format: biochemical, norovirus; conditions: optimized FRET-based protease assay
TGEV = experiment: Cell-based screening, TGEV in ST cells (Example 2); parameters: species or system transmissible gastroenteritis virus; conditions: Alphacoronavirus 1, read-out: Inhibition [ED50 (μM)] against various viruses: Coronavirus, TGEV
Procedure: as §1

[9] = target: SARS-CoV 3CLpro (codon-optimized, N-terminal 6 His, recombinant) (Severe acute respiratory syndrome coronavirus, UniProt P0C6X7); experiment: biochemical
MNV-1 [10] = experiment: Cell culture system, MNV-1 replication in RAW267.4 cells (Example 3); format: cell-based, murine norovirus; conditions: RAW267.4 cells
HAV 3Cpro = HAV 3Cpro (Human hepatitis A virus genotype IB, UniProt P08617); experiment: Optimized FRET protease assay, HAV 3Cpro (Example 3); format: biochemical
Procedure: Fluorogenic substrates with Edans and Dabcyl as a donor and quencher pair were purchased from Bachem (coronavirus substrate) or synthesized by GenScript. The viral proteases and the corresponding fluorogenic substrates are listed in Table 5, along with their sources.
Stock solutions (10 mM) of the substrates and the compounds were prepared in dimethyl sulfoxide (DMSO) and diluted in assay buffer. The assay buffer comprised 20 mM HEPES buffer containing NaCl (0 mM for HAV 3Cpro and 200 mM for all other proteases), 0.4 mM EDTA, Glycerol (60% for NV and MD145 3CLpro and 30% for TGEV and 229E 3CLpro), and 6 mM (NV and MD145 3CLpro and HAV 3Cpro)_or 4 mM (all other proteases) dithiothreitol (DTT) at pH 6 (coronavirus 3CLpro) or 8 (all other proteases). Each protease was mixed with serial dilutions of each compound or with DMSO in 25 μl of assay buffer and incubated at 37° C. for 30 min, followed by the addition of 25 μl of assay buffer containing substrate. Fluorescence readings were obtained using an excitation wavelength of 360 nm and an emission wavelength of 460 nm on a fluorescence microplate reader (FLx800; Biotek, Winooski, Vt.) at 1 h following the addition of substrate. The relative fluorescence units (RFU) were determined by subtracting background values (substrate-containing well without protease) from the raw fluorescence values. […]

[11] = PK and oral bioavailability studies in rats; conditions: 20 mg/Kg (body weight), IV or PO
[12] = target: recombinant 3C or 3CL of MD145 (Norovirus Hu/GII.4/MD145-12/1987/US (Maryland virus), UniProt Q8V0P3); experiment: FRET protease assay, MD145 3CL (Example 2); format: biochemical, norovirus strain MD145
MHV = experiment: Cell-based screening, MHV in CCL-9.1 cells (Example 2); parameters: species or system mouse hepatitis virus; conditions: Murine coronavirus, read-out: Inhibition [ED50 (μM)] against various viruses: Coronavirus, MHV
HAV = experiment: Cell-based screening, HAV (Example 2); parameters: species or system hepatitis A virus; conditions: Picornaviridae, read-out: Inhibition [ED50 (μM)] against various viruses: Picornavirus, HAV
Procedure: as §1

Sequence of recombinant 3C or 3CL of MD145 (Q8V0P3 entry or part of it): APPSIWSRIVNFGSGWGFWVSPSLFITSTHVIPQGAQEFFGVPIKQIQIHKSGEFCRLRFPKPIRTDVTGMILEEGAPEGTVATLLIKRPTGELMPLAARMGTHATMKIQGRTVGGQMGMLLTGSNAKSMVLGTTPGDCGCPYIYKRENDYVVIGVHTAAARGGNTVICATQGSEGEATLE
Sequence of Norwalk virus 3CL protease (Q83883 1101-1281): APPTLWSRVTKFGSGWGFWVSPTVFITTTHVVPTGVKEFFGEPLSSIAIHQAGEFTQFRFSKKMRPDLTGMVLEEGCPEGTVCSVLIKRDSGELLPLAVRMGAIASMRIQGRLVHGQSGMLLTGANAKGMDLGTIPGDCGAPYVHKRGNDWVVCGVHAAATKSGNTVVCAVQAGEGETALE
Sequence of HAV 3Cpro (P08617 1520-1738): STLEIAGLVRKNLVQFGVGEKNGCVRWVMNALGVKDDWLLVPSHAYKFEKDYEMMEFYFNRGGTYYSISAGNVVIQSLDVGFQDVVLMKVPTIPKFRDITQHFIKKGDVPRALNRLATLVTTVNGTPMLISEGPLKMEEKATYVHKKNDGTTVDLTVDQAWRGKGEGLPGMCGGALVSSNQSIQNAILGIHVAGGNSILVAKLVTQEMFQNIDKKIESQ
Sequence of HAV 3Cpro (full-length, 6 His, recombinant) (P08617 1520-1738): as above
Sequence of MD145 3CLpro (codon-optimized, full-length, N-terminal 6 His, recombinant) (P54634 1009-1189): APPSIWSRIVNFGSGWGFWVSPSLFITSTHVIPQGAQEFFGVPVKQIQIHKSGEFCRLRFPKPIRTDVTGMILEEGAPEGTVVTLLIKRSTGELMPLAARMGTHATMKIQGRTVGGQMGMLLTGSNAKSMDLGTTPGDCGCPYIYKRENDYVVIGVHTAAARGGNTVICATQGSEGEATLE

CC(C)C[C@H](NC(=O)OCc1ccccc1)C(=O)N[C@@H](CC1CCNC1=O)C(=O)C(=O)NC(C)C (some centres unmarked) [GC375]
EC50 [1]: 3.2 µM | IC50 [2]: 42.6 ± 2.61 µM | EC50 (MNV-1 [3]): 85 µM | IC50 [4]: 4.03 µM | EC50 (229E): 0.15 µM | EC50 (EV71): 15 µM | inhibitory activity against Norwalk virus 3CL protease (in words) [5]: devoid of inhibitory activity | EC50 (FCV [6]): 4.5 µM | EC50 (Teschovirus): 0.2 µM | antiviral effects against FCV: no effects at concentrations up to (FCV [7]): > 50 µM | EC50 (FIPV): 1.5 µM | effect on the activity of 3CLpro of NV, MD145, MNV-1 (in words) [8]: lower than those of GC373 and GC376 | EC50 (TGEV): 0.2 µM | IC50 [9]: 4.66 ± 0.19 µM | antiviral effects against MNV-1: no effects at concentrations up to (MNV-1 [10]): > 50 µM | inhibitory effect on HAV 3Cpro (in words) (HAV 3Cpro): weak but appreciable inhibitory effects | oral bioavailability, % F [11]: 16 % F | IC50 [12]: 6.4 µM | EC50 (MHV): 4.5 µM | EC50 (HAV): 20 µM
